Results: patent publication US8551947B2, “Treatment of hibernating myocardium with an exendin peptide” (Amylin Pharmaceuticals, LLC, priority 2000, dated 2013)
No end group written: not given here.

Assays:
[1] = tested on: HM dog model (pacing-induced heart failure); assay: Paced dog model of hibernating myocardium: 48 h i.v. infusion, plasma catecholamines and hemodynamics; format: in vivo, Beagle dogs; conditions: for LV contractility (dP/dt) restored to: Dog A (FIG. 1); for LV ejection fraction (LVEF) improved to: Dog A (FIG. 2); for LV wall thickening: Dog A (FIG. 3); for Cardiac output (CO): Dog A (FIG. 4); for CBF (coronary blood flow) / LVEDP (LV end-diastolic pressure) / LVP (left ventricular pressure) / MVO2 (myocardial oxygen consumption) / dP/dt (left ventricular contractility) / NE (plasma norepinepherine): GLP-1 group
Description: The “paced dog” model, used in the Example below, provides a system to study NM, because the exertion of the heart exceeds the heart's ability to respond, which creates an energy-limited situation. Other suitable animal models are available to study chronically dysfunctional viable myocardium, in dogs and pigs, for example, which allow laboratory study of therapeutic regimens. […] Canty a al., Am. J. Physiol, 277; H417-H422 (1999). Similar animal models in diabetic dogs, mice and rats are available for the study of DCM. Bell (1995); Fein (1990).
Beagle dogs were fitted with telemetry devices that permit tong-term ambulatory data collection in conscious animals. These devices measured LV pressure, myocardial oxygen consumption (MVO2, an expression of myocardial efficiency), coronary flow (CBF), and cardiac output (CO). The dogs were “paced,” such that heart rate was forced up to about 240 beats per minute, for 3-4 weeks, which induces moderate HM in a predictable manner. This HM dog model is an accepted model for assessing the effectiveness of treatments for HM. Kiuchi et al., “Myocardial beta-adrenergic receptor function during the development of pacing-induced heart failure.” J. Clin. Invest. 91: 907-914 (1993).
During the treatment period, “pacing” was discontinued. Plasma catecholamines were assessed before and after infusion, along with LV pressures, coronary and systemic hemodynamics, and MVO2.

pancreas = conditions: cited from earlier work
[2] = 48 h i.v. infusion 1.5 pmol/kg/min, after vs before
[3] = AFTER 48 h i.v. infusion 1.5 pmol/kg/min

Substance: rGLP-1 (7-36) amide
- Effect of treatment on LV end-diastolic pressure (LVEDP), in words [1, 2]: significantly decreasing
- Effect of treatment on cardiac output (CO), in words [1, 2]: significantly (*p<0.05) increased
- Effect of treatment on coronary blood flow (CBF), in words [1, 2]: significantly (*p<0.05) increased
- Effect of treatment on left ventricular contractility (LV dP/dt), in words [1, 2]: significantly (*p<0.05) increased
- Effect of treatment on left ventricular pressure (LVP), in words [1, 2]: significantly (*p<0.05) increased
- Effect of treatment on myocardial oxygen consumption (MVO2), in words [1, 2]: significantly (*p<0.05) increased
- LV contractility (dP/dt) restored to ([1]; 24 hours of treatment, pacing had reduced contractility by 60%): 80 % of baseline
- LV contractility (dP/dt) restored to ([1]; 48 hours of treatment): 90 % of baseline
- LV ejection fraction (LVEF) improved to ([1]; 24 hours of treatment, pacing had reduced LVEF by 40%): 88 % of the baseline value
- LV ejection fraction (LVEF) improved to ([1]; 48 hours of treatment): 95 % of the baseline value
- LV wall thickening ([1]; 24 hours of treatment, pacing had reduced wall thickening by 20%): recovered
- LV wall thickening ([1]; 48 hours of treatment): 147 % of the baseline value
- Cardiac output (CO) ([1]; 24 hours of treatment, pacing had reduced CO by 30%): restored to baseline levels
- Cardiac output (CO) ([1]; 48 hours of treatment): 116 % of baseline
- CBF (coronary blood flow) [1, 3]: 37 ± 3 mL/min
- LVEDP (LV end-diastolic pressure) [1, 3]: 15 ± 1 mm Hg
- LVP (left ventricular pressure) [1, 3]: 108 ± 2 mm Hg
- MVO2 (myocardial oxygen consumption) [1, 3]: 297 ± 16 ml O2/min
- dP/dt (left ventricular contractility) [1, 3]: 2212 ± 86 mm Hg/s
- NE (plasma norepinepherine) ([1]; AFTER 48 h i.v. infusion 1.5 pmol/kg/min, *p<0.05): 1.62 ± 0.11* nmol/ml
- NE (plasma norepinepherine) ([1]; AFTER 48 h i.v. infusion 1.5 pmol/kg/min, *p<0.05, listed as CLP-1): 1.62 ± 0.11 nmol/mL
- CBF (coronary blood flow) ([1]; BEFORE infusion): 27 ± 1 mL/min
- LVEDP (LV end-diastolic pressure) ([1]; BEFORE infusion): 25 ± 1 mm Hg
- LVP (left ventricular pressure) ([1]; BEFORE infusion): 98 ± 2 mm Hg
- MVO2 (myocardial oxygen consumption) ([1]; BEFORE infusion): 246 ± 18 ml O2/min
- dP/dt (left ventricular contractility) ([1]; BEFORE infusion): 1127 ± 86 mm Hg/s
- NE (plasma norepinepherine) ([1]; BEFORE infusion (after 3-4 weeks pacing), five dogs): 2.30 ± 0.15 nmol/mL
- NE (plasma norepinepherine) ([1]; BEFORE infusion (after 3-4 weeks pacing), five dogs, listed as CLP-1): 2.30 ± 0.15 nmol/mL

Substance: Glu Gly Thr Phe Thr Ser Asp Val Ser Ser Tyr Leu Glu Gly Gln Ala Ala Lys Glu Phe Ile Ala Trp Lau Val Lys Gly Arg Gly (EGTFTSDVSSYLEGQAAKEFIAWLVKGRG; not fully specified; printed as Glu Gly Thr Phe Thr Ser Asp Val Ser Ser Tyr Leu Glu Gly Gln Ala Ala Lys Glu Phe Ile Ala Trp Lau Val Lys Gly Arg Gly) [SEQ ID NO:5]
- stimulation of production or release of insulin from the pancreas (pancreas): do not stimulate production or release of insulin

Substance: Glu Gly Thr Phe Thr Ser Asp Val Ser Ser Tyr Leu Glu Gly Gln Ala Ala Lys Glu Phe Ile Ala Trp Leu Val Lys Gly Arg (NH2) (EGTFTSDVSSYLEGQAAKEFIAWLVKGR-NH2) [SEQ ID NO:6]
- stimulation of production or release of insulin from the pancreas (pancreas): do not stimulate production or release of insulin
